# Assay results: US7144710B2, “Method for detecting inflammation and inflammatory conditions” (Trustees of Dartmouth College, priority 2000, dated 2006)
# How the values were obtained:
# [1] = tested on: CRP, TNFA, IL-6, IL-10, cortisol in plasma; test: Plasma acute phase proteins, glucocorticoids and cytokines of healthy volunteers after LPS bolus infusion; assay type: in vivo, human; settings: post LPS administration
# Method: In order to more closely mimic the in vivo inflammatory response to infection in a more controlled setting than the cardiac patients described above, healthy volunteers were administered a 4 ng/kg bolus infusion of LPS and monitored the levels of soluble CD163 in plasma. […] Plasma samples were taken at baseline (before administration of LPS), and then at various time points after LPS infusion up to 72 hours after infusion initiation. Levels of CD163 in plasma were measured using the assay of the present invention. […] In the one volunteer where levels had declined at […], levels remained elevated up to 4 hours before returning to baseline levels by 8 hours. Changes in levels of known acute phase proteins, glucocorticoids, and pro- and anti-inflammatory cytokines were also monitored in order to determine if their levels correlated with the appearance of soluble CD163 in plasma. […] Plasma levels of TNFA, IL-6 and IL-10, all known to be produced following LPS infusion, peaked at 1, 2, and 4 hours post LPS administration, respectively. […] Therefore, CD163 acts as an early signaling event in the inflammatory response cascade.
# [2] = tested on: CD163 expression; test: Monocytes cultured with LPS and/or DEX, immunofluorescence detection of surface CD163; assay type: cell-based, human; settings: monocytes cultured with LPS alone
# Method: In addition to testing the effects of cytokines in combination with glucocorticoids on levels of CD163, studies were performed to examine the effects of glucocorticoids in combination with lipopolysaccharide (LPS). […] However, when monocytes were cultured for 48 hours with DEX combined with LPS, their was a synergistic increase in CD163 expression, where the effect of DEX alone was increased by more than 2-fold when LPS treatment was added.
# [3] = tested on: monocyte surface CD163; test: Shedding of monocyte surface CD163 in vitro; assay type: cell-based, human; settings: for shedding of surface CD163 from cells pre-treated with glucocorticoids plus LPS: subsequent treatment with the agent
# Method: Therefore, like PMA, LPS is capable of inducing CD163 shedding. LPS-induced shedding occurred even with monocytes that had been cultured for 48 hours in DEX and thus had 5- to 10-fold higher levels of surface CD163 than freshly isolated monocytes. […] This LPS-conferred resistance to subsequent LPS-induced shedding of CD163 is similar to reported endotoxin pre-conditioning for resistance to subsequent inflammatory insults.
# [4] = tested on: soluble CD163 in plasma; test: Soluble CD163 in plasma of healthy volunteers after LPS bolus infusion (ELISA); assay type: in vivo, human; settings: 4 ng/kg bolus infusion of LPS
# Method: In order to provide for use of CD163 as a biomarker of inflammation, a method for detection of CD163 in biological samples such as plasma was developed. The assay of detection is an ELISA assay using a CD163-specific antibody such as MAC2-158 or MAC2-48 as the CD163 capture antibody and the commercially available biotinylated antibody RM3/1 as the CD163 detection antibody. Briefly, plates were coated with purified MAC2-158 or MAC2-48 antibody and incubated overnight at 4 C. After washing, non-specific binding was blocked by adding blocking buffer to each plate well and incubating for 30 minutes at room temperature. […]
# In order to more closely mimic the in vivo inflammatory response to infection in a more controlled setting than the cardiac patients described above, healthy volunteers were administered a 4 ng/kg bolus infusion of LPS and monitored the levels of soluble CD163 in plasma. […] Levels of CD163 in plasma were measured using the assay of the present invention. […] Changes in levels of known acute phase proteins, glucocorticoids, and pro- and anti-inflammatory cytokines were also monitored in order to determine if their levels correlated with the appearance of soluble CD163 in plasma. […]
# ELISA plates were coated, 100 μl per well, with 5 μg/ml purified MAC2-158 (coating buffer of 0.1 M NaHCO30.5 M NaCl, adjusted to pH 8.4 with HCl). […] The plates were read on a spectrophotometer at […].
# [5] = tested on: monocyte surface CD163; settings: Droste et al. 1999; blocked by protease inhibitors; cited from earlier work
# [6] = tested on: monocyte CD163 expression; test: CD163 expression on monocytes of cultured PBMCs, staining and flow cytometric analysis; assay type: cell-based, human; settings: for increase of monocyte CD163 expression: PBMCs treated 24 hours, agent alone, 200 nM DEX, vs control media, p<0.01; for CD163 expression of cytokine given in combination with DEX over DEX treatment alone: PBMCs 24 hours
# Method: To assess whether different cytokines could influence CD163 expression, freshly isolated PBMCs were cultured for 24 hours in the presence of various cytokines, 200 nM DEX (as a positive control for CD163 upregulation), or control media. The cells were then subjected to staining and flow cytometric analysis.
# For cytokine treatment studies, isolated PBMCs were suspended in hepes buffered RPMI 1640/0.05% gentamicin/10% FBS at a concentration of 2.0×10^6 to 2.5×10^6 cells/ml and cultured in 96 well plates at 37° C. and 5% CO2 in the presence of various mediators (Table 1). Mononuclear cells were stained for flow cytometric analysis after 24 hours in culture unless otherwise indicated. This enhanced cell recovery because monocytes, which initially adhere to plastic vessels, transiently detach from culture wells at 24–48 hours.
# All staining procedures were performed at 4 C. Briefly, cultured PBMCs were incubated with normal human IgG (6 mg/ml) to block Fc receptor-specific binding of mAbs and 30 μg/ml of the isotype control mAb P3 or a saturating amount of mAb MAC2-48 (20 μg/ml) for one hour. Cells were then washed and stained for one hour with 17.5 μg/ml FITC labeled goat F(ab=)2 anti-mouse Ig. The cells were again washed and fixed with 1% methanol free formalin.
# Cell fluorescence of monocytes gated using forward and side scatter was analyzed using a Becton Dickenson FACScan (Franklin Lakes, N.J.). Mean fluorescence intensity (MFI) was calculated by subtracting the MFI of the P3 stained mononuclear cells from the MFI of the corresponding Mac 2-48 stained cells.
# [7] = tested on: CD163; test: Western blots of monocyte lysates; assay type: cell-based, human
molecule,measurement,setting,value
lipopolysaccharide [LPS],time at which plasma cortisol began to increase,[1],4 h
same,time by which plasma CRP increased,[1],≤ 8 h
same,time of peak of plasma CRP,[1],24 h
same,time of peak of plasma IL-6,[1],2 h
same,time of peak of plasma IL-10,[1],4 h
same,time of peak of plasma TNFA,[1],1 h
same,time of peak of plasma cortisol,[1],6 h
same,CD163 detected on monocyte surface,[2],low levels of CD163
same,time to shedding of monocyte surface CD163,[3]; in vitro,≤ 2 h
same,shedding of surface CD163 from cells pre-treated with glucocorticoids plus LPS,[3],largely resistant to shedding
same,increase of soluble CD163 levels in plasma compared to baseline,[4],≤ 7 fold
CCCCCCCCCCCCCC(=O)O[C@@H]1[C@@H](C)[C@@]2(O)[C@@H](C=C(CO)C[C@]3(O)C(=O)C(C)=C[C@@H]23)[C@@H]2C(C)(C)[C@]12OC(C)=O [PMA],shedding of surface CD163 from monocytes in culture,[5],rapid shedding
same,shedding of surface CD163 from cells pre-treated with glucocorticoids plus LPS,[3],remained sensitive
C[C@@H]1C[C@H]2[C@@H]3CCC4=CC(=O)C=C[C@]4(C)[C@@]3(F)[C@@H](O)C[C@]2(C)[C@@]1(O)C(=O)CO [DEX],increase of monocyte CD163 expression,[6],~7 fold
GM-CSF,CD163 expression of cytokine given in combination with DEX over DEX treatment alone,[6],does not enhance CD163 expression
"IL-10: cytokine, originally known as cytokine synthesis inhibitory factor (protein, UniProt P22301 19-178, looked up) Interleukin-10: SPGQGTQSENSCTHFPGNLPNMLRDLRDAFSRVKTFFQMKDQLDNLLLKESLLEDFKGYLGCQALSEMIQFYLEEVMPQAENQDPDIKAHVNSLGENLKTLRLRLRRCHRFLPCENKSKAVEQVKNAFNKLQEKGIYKAMSEFDIFINYIEAYMTMKIRN",CD163 expression of cytokine given in combination with DEX over DEX treatment alone,[6],significantly increased CD163 expression
same,increase of monocyte CD163 expression,[6],approximately 4 fold
same,CD163 expression by western blot,[7],increased expression of CD163
"IL-4: cytokine interleukin-4 (protein, UniProt P05112 25-153, looked up) Interleukin-4: HKCDITLQEIIKTLNSLTEQKTLCTELTVTDIFAASKNTTEKETFCRAATVLRQFYSHHEKDTRCLGATAQQFHRHKQLIRFLKRLDRNLWGLAGLNSCPVKEANQSTLENFLERLKTIMREKYSKCSS",CD163 expression of cytokine given in combination with DEX over DEX treatment alone,[6],does not enhance CD163 expression
